According to article PMC11472310, “Distinctive Immune Signatures Driven by Structural Alterations in Desmuramylpeptide NOD2 Agonists” (Journal of Medicinal Chemistry, 2024):
Like-named read-outs stand apart in the source and are kept apart here.

Molecular target: T1, hNOD2 (Homo sapiens, UniProt Q9HC29)
T1 construct: host or cells: HEK-Blue NOD2 cells (HEK293)
Assay: HEK-Blue NOD2 cell line reporter assay (NF-κB-inducible SEAP)
Type: cell-based
Method: To assess the NOD2 agonistic potential of the synthesized desmuramylpeptides at a cellular level, we employed the HEK-Blue NOD2 cell line reporter assay, a validated and commercially available method. All synthesized compounds were evaluated for their dose-dependent activities to establish their EC50 values.
The HEK-Blue NOD1 and NOD2 cell line reporter assay was generated from HEK293 cells through cotransfection of the hNOD1 or hNOD2 gene, respectively, along with an NF-κB-inducible secreted embryonic alkaline phosphatase (SEAP) reporter gene. Upon activation of NOD1 or NOD2, NF-κB triggers the production of SEAP, which can be quantitatively measured colorimetrically. […] After 18 h of incubation at 37 °C with 5% CO2, SEAP activity was measured spectrophotometrically by absorbance at 630 nm (BioTek Synergy microplate reader; Winooski, VT, USA). EC50 values were determined using Prism software (version 9; GraphPad Software, CA, USA). Each experiment was conducted in duplicate and repeated in at least two independent biological replicates.

[1] = HEK-Blue NOD2 cells, 18 h, NF-κB transcriptional activity (SEAP), read-out: EC50 (nM), NOD2 agonistic activity

T1 sequence (Q9HC29 whole entry): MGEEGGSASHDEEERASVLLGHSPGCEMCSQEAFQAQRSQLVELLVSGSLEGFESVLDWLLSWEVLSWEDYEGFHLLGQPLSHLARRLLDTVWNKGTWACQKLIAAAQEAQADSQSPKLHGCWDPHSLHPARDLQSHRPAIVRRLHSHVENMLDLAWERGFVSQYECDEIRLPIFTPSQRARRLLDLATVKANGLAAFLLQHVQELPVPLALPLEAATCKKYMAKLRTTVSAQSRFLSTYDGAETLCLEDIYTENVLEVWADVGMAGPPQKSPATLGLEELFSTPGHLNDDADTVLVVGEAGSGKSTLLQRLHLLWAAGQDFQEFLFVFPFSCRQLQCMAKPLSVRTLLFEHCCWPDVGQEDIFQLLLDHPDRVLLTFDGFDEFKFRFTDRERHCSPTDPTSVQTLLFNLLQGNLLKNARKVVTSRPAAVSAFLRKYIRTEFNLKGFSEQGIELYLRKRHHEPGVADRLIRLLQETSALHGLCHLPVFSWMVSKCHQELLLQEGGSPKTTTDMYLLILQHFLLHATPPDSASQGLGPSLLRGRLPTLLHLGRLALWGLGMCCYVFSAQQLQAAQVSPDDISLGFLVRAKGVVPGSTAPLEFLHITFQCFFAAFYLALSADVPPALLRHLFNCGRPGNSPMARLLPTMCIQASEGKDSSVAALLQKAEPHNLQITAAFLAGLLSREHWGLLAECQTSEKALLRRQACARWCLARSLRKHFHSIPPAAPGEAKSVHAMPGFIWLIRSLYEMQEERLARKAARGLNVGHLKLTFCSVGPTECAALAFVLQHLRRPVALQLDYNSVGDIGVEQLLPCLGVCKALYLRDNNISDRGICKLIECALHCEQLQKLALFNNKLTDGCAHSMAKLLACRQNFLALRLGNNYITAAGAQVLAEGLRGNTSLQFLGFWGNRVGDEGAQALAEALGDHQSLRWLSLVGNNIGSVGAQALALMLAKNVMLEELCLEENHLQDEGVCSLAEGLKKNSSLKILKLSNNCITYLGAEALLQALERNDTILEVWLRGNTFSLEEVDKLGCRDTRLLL

| SMILES | EC50 [1] | also measured |
| --- | --- | --- |
| CCCCCC(=O)Oc1ccc(/C=C/C(=O)NCC(=O)N[C@H](C(=O)N[C@H](CCC(=O)OCC)C(=O)OCC)C(C)C)cc1OC [Compound 4, Diethyl ((E)-3-(4-(Hexanoyloxy)-3-methoxyphenyl)acryloyl)glycyl-L-valyl-D-glutamate] | 20.2 ± 1.2 nM | – |
| CCCCCCCC(=O)Oc1ccc(/C=C/C(=O)NCC(=O)N[C@H](C(=O)N[C@H](CCC(=O)OCC)C(=O)OCC)C(C)C)cc1OC [Compound 5, Diethyl ((E)-3-(3-Methoxy-4-(octanoyloxy)phenyl)acryloyl)glycyl-L-valyl-D-glutamate] | 25.5 ± 2.2 nM | – |
| CCCCCCCCC(=O)Oc1ccc(/C=C/C(=O)NCC(=O)N[C@H](C(=O)N[C@H](CCC(=O)OCC)C(=O)OCC)C(C)C)cc1OC [Compound 6] | 24.8 ± 2.3 nM | – |
| CCCCCCCCCC(=O)Oc1ccc(/C=C/C(=O)NCC(=O)N[C@H](C(=O)N[C@H](CCC(=O)OCC)C(=O)OCC)C(C)C)cc1OC [Compound 7, Diethyl ((E)-3-(4-(Decanoyloxy)-3-methoxyphenyl)acryloyl)glycyl-L-valyl-D-glutamate] | 30.6 ± 5.5 nM | – |
| CCCCCCCCCCCCCC(=O)Oc1ccc(/C=C/C(=O)NCC(=O)N[C@H](C(=O)N[C@H](CCC(=O)OCC)C(=O)OCC)C(C)C)cc1OC [Compound 8, Diethyl ((E)-3-(3-Methoxy-4-(tetradecanoyloxy)phenyl)acryloyl)glycyl-L-valyl-D-glutamate] | 69.5 ± 5.1 nM | – |
| CCCCCCCCCCCCCCCCCC(=O)Oc1ccc(/C=C/C(=O)NCC(=O)N[C@H](C(=O)N[C@H](CCC(=O)OCC)C(=O)OCC)C(C)C)cc1OC [Compound 10] | 7200 ± 2640 nM | EC50 (HEK-Blue NOD2 cells, 18 h, read-out: EC50, NOD2 agonistic activity (text)): 7200 nM |
| CCCCCC(C)C(=O)Oc1ccc(/C=C/C(=O)NCC(=O)N[C@H](C(=O)N[C@H](CCC(=O)OCC)C(=O)OCC)C(C)C)cc1OC (stereo partly drawn) [Compound 11, Diethyl ((E)-3-(3-Methoxy-4-((2-methylheptanoyl)oxy)phenyl)acryloyl)glycyl-L-valyl-D-glutamate] | 11.7 ± 2.8 nM | – |
| CCCCC(CC)C(=O)Oc1ccc(/C=C/C(=O)NCC(=O)N[C@H](C(=O)N[C@H](CCC(=O)OCC)C(=O)OCC)C(C)C)cc1OC (stereo partly drawn) [Compound 12, Diethyl ((E)-3-(4-((2-ethylhexanoyl)oxy)-3-methoxyphenyl)acryloyl)glycyl-L-valyl-D-glutamate] | 21.6 ± 6.5 nM | – |
| CCCCCCC(CC)C(=O)Oc1ccc(/C=C/C(=O)NCC(=O)N[C@H](C(=O)N[C@H](CCC(=O)OCC)C(=O)OCC)C(C)C)cc1OC (stereo partly drawn) [Compound 13, Diethyl ((E)-3-(4-((2-Ethyloctanoyl)oxy)-3-methoxyphenyl)acryloyl)glycyl-L-valyl-D-glutamate] | 9.7 nM | EC50 (supplementary SMILES csv, read-out: HEK-blue hNOD2 EC50): 9.7 nM |
| CCCCCC(CCC)C(=O)Oc1ccc(/C=C/C(=O)NCC(=O)N[C@H](C(=O)N[C@H](CCC(=O)OCC)C(=O)OCC)C(C)C)cc1OC (stereo partly drawn) [Compound 14, Diethyl ((E)-3-(3-Methoxy-4-((2-propylheptanoyl)oxy)phenyl)acryloyl)glycyl-L-valyl-D-glutamate] | 19.4 ± 3.6 nM | – |

Second part, led by results:

| EC50 [1] | SMILES | also measured |
| --- | --- | --- |
| 22.4 ± 5.9 nM | CCCCC(CCCC)C(=O)Oc1ccc(/C=C/C(=O)NCC(=O)N[C@H](C(=O)N[C@H](CCC(=O)OCC)C(=O)OCC)C(C)C)cc1OC [Compound 15, Diethyl ((E)-3-(4-((2-Butylhexanoyl)oxy)-3-methoxyphenyl)acryloyl)glycyl-L-valyl-D-glutamate] | – |
| 25.8 ± 3.3 nM | CCOC(=O)CC[C@@H](NC(=O)[C@@H](NC(=O)CNC(=O)/C=C/c1ccc(OC(=O)CCCC2CCCCC2)c(OC)c1)C(C)C)C(=O)OCC [Compound 16, Diethyl ((E)-3-(4-((4-Cyclohexylbutanoyl)oxy)-3-methoxyphenyl)acryloyl)glycyl-L-valyl-D-glutamate] | – |
| 88.6 ± 10.5 nM | CCCCCC(CCCCC)C(=O)Oc1ccc(/C=C/C(=O)NCC(=O)N[C@H](C(=O)N[C@H](CCC(=O)OCC)C(=O)OCC)C(C)C)cc1OC [Compound 17, Diethyl ((E)-3-(3-Methoxy-4-((2-pentylheptanoyl)oxy)phenyl)acryloyl)glycyl-L-valyl-D-glutamate] | drop of activity compared to 2 (EC50 ratio versus 2 (lauroyl)): 9 factor |
| 422 ± 120 nM | CCCCCCCC/C=C\CCCCCCCC(=O)Oc1ccc(/C=C/C(=O)NCC(=O)N[C@H](C(=O)N[C@H](CCC(=O)OCC)C(=O)OCC)C(C)C)cc1OC [Compound 18, Diethyl ((E)-3-(3-Methoxy-4-(oleoyloxy)phenyl)acryloyl)glycyl-L-valyl-D-glutamate] | increase in potency compared to saturated counterpart 10 (EC50 ratio versus 10 (stearoyl)): 17 fold |
| 198 ± 39.1 nM | CCCCC/C=C\C/C=C\CCCCCCCC(=O)Oc1ccc(/C=C/C(=O)NCC(=O)N[C@H](C(=O)N[C@H](CCC(=O)OCC)C(=O)OCC)C(C)C)cc1OC [Compound 19, Diethyl ((E)-3-(3-Methoxy-4-(((9Z,12Z)-octadeca-9,12-dienoyl)oxy)phenyl)acryloyl)glycyl-L-valyl-D-glutamate] | – |
| 135 ± 28.9 nM | CC/C=C\C/C=C\C/C=C\CCCCCCCC(=O)Oc1ccc(/C=C/C(=O)NCC(=O)N[C@H](C(=O)N[C@H](CCC(=O)OCC)C(=O)OCC)C(C)C)cc1OC [Compound 20, Diethyl ((E)-3-(3-Methoxy-4-(((9Z,12Z,15Z)-octadeca-9,12,15-trienoyl)oxy)phenyl)acryloyl)glycyl-L-valyl-D-glutamate] | – |
| 205 ± 28.6 nM | CCCCC/C=C\C/C=C\C/C=C\CCCCC(=O)Oc1ccc(/C=C/C(=O)NCC(=O)N[C@H](C(=O)N[C@H](CCC(=O)OCC)C(=O)OCC)C(C)C)cc1OC [Compound 21, Diethyl ((E)-3-(3-Methoxy-4-(((6Z,9Z,12Z)-octadeca-6,9,12-trienoyl)oxy)phenyl)acryloyl)glycyl-L-valyl-D-glutamate] | – |
| 200 ± 50.8 nM | CC/C=C\C/C=C\C/C=C\C/C=C\C/C=C\C/C=C\CCC(=O)Oc1ccc(/C=C/C(=O)NCC(=O)N[C@H](C(=O)N[C@H](CCC(=O)OCC)C(=O)OCC)C(C)C)cc1OC [Compound 22, Diethyl ((E)-3-(4-(((4Z,7Z,10Z,13Z,16Z,19Z)-Docosa-4,7,10,13,16,19-hexaenoyl)oxy)-3-methoxyphenyl)acryloyl)glycyl-L-valyl-D-glutamate] | – |
| 12.3 ± 1.5 nM | CCOC(=O)CC[C@@H](NC(=O)[C@@H](NC(=O)CNC(=O)/C=C/c1ccc(OC(=O)CCCCCCCCCCCCCO)c(OC)c1)C(C)C)C(=O)OCC [Compound 24, Diethyl ((E)-3-(4-((14-Hydroxytetradecanoyl)oxy)-3-methoxyphenyl)acryloyl)glycyl-L-valyl-D-glutamate] | boost of NOD2 agonistic activity compared to 8 (EC50 ratio versus unsubstituted myristoylated 8): 6 fold |
| > 10000 nM | CCOC(=O)[C@@H](CCC(=O)NCCCCN)NC(=O)[C@@H](NC(=O)CNC(=O)/C=C/c1ccc(O)c(OC)c1)C(C)C [Compound 30, Ethyl N^5-(4-Aminobutyl)-N^2-((E)-3-(4-hydroxy-3-methoxyphenyl)acryloyl)glycyl-L-valyl-D-glutaminate] | – |
| > 10000 nM | CCOC(=O)[C@@H](CCC(=O)NCCCNCCCCN)NC(=O)[C@@H](NC(=O)CNC(=O)/C=C/c1ccc(O)c(OC)c1)C(C)C [Compound 34, Ethyl N^5-(3-((4-Aminobutyl)amino)propyl)-N^2-((E)-3-(4-hydroxy-3-methoxyphenyl)acryloyl)glycyl-L-valyl-D-glutaminate] | – |
